biological target: T1, Glutamate--cysteine ligase catalytic subunit (Homo sapiens, UniProt P48506); assay: GCL Enzyme Profiling Assay
T1 sequence (P48506 whole entry): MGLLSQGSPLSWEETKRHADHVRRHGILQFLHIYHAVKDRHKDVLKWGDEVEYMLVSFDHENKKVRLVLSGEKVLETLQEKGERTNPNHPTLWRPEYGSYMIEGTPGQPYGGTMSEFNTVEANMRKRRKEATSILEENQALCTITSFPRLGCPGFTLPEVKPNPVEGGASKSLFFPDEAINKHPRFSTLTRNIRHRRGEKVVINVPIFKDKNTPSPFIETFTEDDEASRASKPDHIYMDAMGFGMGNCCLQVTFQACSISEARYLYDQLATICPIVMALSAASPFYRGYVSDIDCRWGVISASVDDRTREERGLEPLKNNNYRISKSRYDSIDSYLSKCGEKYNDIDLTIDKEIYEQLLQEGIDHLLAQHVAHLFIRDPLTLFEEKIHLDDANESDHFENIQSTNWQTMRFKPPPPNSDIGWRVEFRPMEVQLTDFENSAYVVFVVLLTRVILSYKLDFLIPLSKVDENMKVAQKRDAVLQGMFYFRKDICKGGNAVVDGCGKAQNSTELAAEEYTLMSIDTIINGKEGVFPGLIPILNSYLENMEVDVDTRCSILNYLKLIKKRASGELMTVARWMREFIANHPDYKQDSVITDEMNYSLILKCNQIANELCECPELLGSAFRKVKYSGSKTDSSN
Method: Compound in pure DMSO was stamped in assay plates (Greiner black 384-well) or appropriate containers using a D300e digital dispenser (TECAN) and the final DMSO concentration was normalized to 1%. A 5 mL, or in the present case, 5 μL mixture of human recombinant GCL (final concentration: 5 nM) and ATP (final concentration: 0.6 mM) was added and the solution was incubated at room temperature (22° C.) for 1 h. […] The reaction was stopped after 1 h or in the present case, 2 h by addition of 5 mL, or in the present case, 5 μL ADP GLO Reagent (Promega). The resulting solution was incubated for 2 h at room temperature. This was then followed by addition of 5 mL, or in the present case, 5 μL ADP GLO Detection. After incubation at room temperature for 30 min, the plates were read on a plate reader (PheraStar) using a luminescence protocol to quantify the GCL enzyme activity from each reaction solution.

SMILES | IC50 [µM]
N=S(=O)(CCC(c1ccc(Oc2ccc(Cl)cc2Cl)cc1)C(F)(F)F)CC[C@H](N)C(=O)O (stereo partly specified) [US20260034094, Compound 318] | < 20
COc1ccccc1-c1ccc(C(CCS(=N)(=O)CC[C@H](N)C(=O)O)C(F)(F)F)cc1 (stereo partly specified) [US20260034094, Compound 264] | < 20
CC(C)c1ccccc1-c1ccc(C(CCS(=N)(=O)CC[C@H](N)C(=O)O)C(F)(F)F)cc1 (stereo partly specified) [US20260034094, Compound 266] | < 20
N=S(=O)(CC[C@H](N)C(=O)O)CCC(O)(c1ncc(-c2ccccc2)cn1)C(F)(F)F (stereo partly specified) [US20260034094, Compound 467] | < 20
N=S(=O)(CCC(c1cccc(-c2ccc(Cl)cc2Cl)c1)C(F)(F)F)CC[C@H](N)C(=O)O (stereo partly specified) [US20260034094, Compound 288] | < 20
N=S(=O)(CC[C@H](N)C(=O)O)CCC(O)(c1ccc(OC2CCCCC2)cc1)C(F)(F)F (stereo partly specified) [US20260034094, Compound 339] | < 20
N=S(=O)(CCC(c1ccc(-c2cnc(N)nc2)cc1)C(F)(F)F)CC[C@H](N)C(=O)O (stereo partly specified) [US20260034094, Compound 251] | < 20
N=S(=O)(CC[C@H](N)C(=O)O)CCC(O)(c1ccc2ccccc2n1)C(F)(F)F (stereo partly specified) [US20260034094, Compound 373] | < 20
N=S(=O)(CCC(c1ccc2[nH]cnc2c1)C(F)(F)F)CC[C@H](N)C(=O)O (stereo partly specified) [US20260034094, Compound 399] | < 20
N=S(=O)(CC[C@H](N)C(=O)O)CCC(O)(c1cnc(-c2ccc(Cl)cc2Cl)nc1)C(F)(F)F (stereo partly specified) [US20260034094, Compound 366] | < 20
N=S(=O)(CCC(c1cccc(C#Cc2ccccc2)c1)C(F)(F)F)CC[C@H](N)C(=O)O (stereo partly specified) [US20260034094, Compound 273] | < 20
N=S(=O)(CCC(c1cccc(-c2cccc(F)c2)c1)C(F)(F)F)CC[C@H](N)C(=O)O (stereo partly specified) [US20260034094, Compound 287] | < 20
Cc1cccc(-c2cccc(C(CCS(=N)(=O)CC[C@H](N)C(=O)O)C(F)(F)F)c2)c1 (stereo partly specified) [US20260034094, Compound 286] | < 20
N=S(=O)(CCC(c1ccc(-c2ccccc2C(F)(F)F)cc1)C(F)(F)F)CC[C@H](N)C(=O)O (stereo partly specified) [US20260034094, Compound 267] | < 20
N=S(=O)(CCC(c1ccc(-c2ccccc2F)cc1)C(F)(F)F)CC[C@H](N)C(=O)O (stereo partly specified) [US20260034094, Compound 217] | < 20
N=S(=O)(CCC(N1CCN(c2ccc(Cl)cc2Cl)CC1)C(F)(F)F)CC[C@H](N)C(=O)O (stereo partly specified) [US20260034094, Compound 423] | < 20
N=S(=O)(CCC(c1ccc(-c2ccc(Cl)s2)cc1)C(F)(F)F)CC[C@H](N)C(=O)O (stereo partly specified) [US20260034094, Compound 256] | < 20
Cc1cc(F)ccc1-c1ccc(C(CCS(=N)(=O)CC[C@H](N)C(=O)O)C(F)(F)F)cc1 (stereo partly specified) [US20260034094, Compound 278] | < 20
N=S(=O)(CC[C@H](N)C(=O)O)CCC(O)(c1cnc(-c2ccc(Cl)cc2Cl)cn1)C(F)(F)F (stereo partly specified) [US20260034094, Compound 367] | < 20
Cc1cc(Cl)ccc1-c1cccc(C(CCS(=N)(=O)CC[C@H](N)C(=O)O)C(F)(F)F)c1 (stereo partly specified) [US20260034094, Compound 283] | < 20
N=S(=O)(CCC(c1ccc(-c2ccc(C(N)=O)nc2)cc1)C(F)(F)F)CC[C@H](N)C(=O)O (stereo partly specified) [US20260034094, Compound 245] | < 20
N=S(=O)(CCC(c1ccc(-c2ccc(Cl)cc2)cc1)C(F)(F)F)CC[C@H](N)C(=O)O (stereo partly specified) [US20260034094, Compound 277] | < 20
Cc1ccc(-c2ccc(C(O)(CCS(=N)(=O)CC[C@H](N)C(=O)O)C(F)(F)F)cc2)c(F)c1 (stereo partly specified) [US20260034094, Compound 437] | < 20

SMILES | IC50 [µM]
Cc1ccc(-c2cccc(C(CCS(=N)(=O)CC[C@H](N)C(=O)O)C(F)(F)F)c2)c(F)c1 (stereo partly specified) [US20260034094, Compound 284] | < 20
N=S(=O)(CCC(CO)C(F)(F)F)CC[C@H](N)C(=O)O (stereo partly specified) [US20260034094, Compound 320] | < 20
Cn1cc(-c2ccc(C(O)(CCS(=N)(=O)CC[C@H](N)C(=O)O)C(F)(F)F)nc2)cn1 (stereo partly specified) [US20260034094, Compound 472] | < 20
Cc1ccc(-c2ccc(C(O)(CCS(=N)(=O)CC[C@H](N)C(=O)O)C(F)(F)F)cc2)c(Cl)c1 (stereo partly specified) [US20260034094, Compound 432] | < 20
N=S(=O)(CCC(c1ccc(-c2cnc3[nH]ccc3c2)cc1)C(F)(F)F)CC[C@H](N)C(=O)O (stereo partly specified) [US20260034094, Compound 253] | < 20
N=S(=O)(CC[C@H](N)C(=O)O)CCC(O)(c1cc(-c2ccc(Cl)cc2Cl)cs1)C(F)(F)F (stereo partly specified) [US20260034094, Compound 337] | < 20
N=S(=O)(CCC(c1ccc(C2=CCNCC2)cc1)C(F)(F)F)CC[C@H](N)C(=O)O (stereo partly specified) [US20260034094, Compound 259] | < 20
C=Cc1ccc(C(CCS(=N)(=O)CC[C@H](N)C(=O)O)C(F)(F)F)cc1 (stereo partly specified) [US20260034094, Compound 261] | < 20
N=S(=O)(CCC(c1ccc(S(=O)(=O)Cc2ccccc2)cc1)C(F)(F)F)CC[C@H](N)C(=O)O (stereo partly specified) [US20260034094, Compound 291] | < 20
Cc1ccc(-c2cccc(C(CCS(=N)(=O)CC[C@H](N)C(=O)O)C(F)(F)F)c2)cc1F (stereo partly specified) [US20260034094, Compound 290] | < 20
C=C(c1ccc(C(CCS(=N)(=O)CC[C@H](N)C(=O)O)C(F)(F)F)cc1)C(F)(F)F (stereo partly specified) [US20260034094, Compound 260] | < 20
Cc1ccc(-c2ccc(C(CCS(=N)(=O)CC[C@H](N)C(=O)O)C(F)(F)F)cc2)cn1 (stereo partly specified) [US20260034094, Compound 246] | < 20
N=S(=O)(CC[C@H](N)C(=O)O)CCC(O)(c1ccc(-c2ccco2)cn1)C(F)(F)F (stereo partly specified) [US20260034094, Compound 481] | < 20
N=S(=O)(CCC(c1ccc(-c2ccc(C(F)F)cc2)cc1)C(F)(F)F)CC[C@H](N)C(=O)O (stereo partly specified) [US20260034094, Compound 231] | < 20
N=S(=O)(CC[C@H](N)C(=O)O)CCC(O)(c1ccc(-c2ccc(Cl)cc2)cc1)C(F)(F)F (stereo partly specified) [US20260034094, Compound 431] | < 20
N=S(=O)(CCC(c1ccc(C2CC2)cc1)C(F)(F)F)CC[C@H](N)C(=O)O (stereo partly specified) [US20260034094, Compound 225] | < 20
N=S(=O)(CCC(c1ccc(-c2ccc(F)cc2O)cc1)C(F)(F)F)CC[C@H](N)C(=O)O (stereo partly specified) [US20260034094, Compound 281] | < 20
N=S(=O)(CCC(c1ccc(Oc2ccccc2)cc1)C(F)(F)F)CC[C@H](N)C(=O)O (stereo partly specified) [US20260034094, Compound 316] | < 20
CC(C)(O)c1cccc(-c2ccc(C(CCS(=N)(=O)CC[C@H](N)C(=O)O)C(F)(F)F)cc2)c1 (stereo partly specified) [US20260034094, Compound 241] | < 20
N=S(=O)(CCC(c1ccc(-c2cnc(C3CC3)nc2)cc1)C(F)(F)F)CC[C@H](N)C(=O)O (stereo partly specified) [US20260034094, Compound 252] | < 20
Cc1ccc(-c2ccc(C(CCS(=N)(=O)CC[C@H](N)C(=O)O)C(F)(F)F)cc2)c(C)c1 (stereo partly specified) [US20260034094, Compound 280] | < 20
Cc1cc(C(O)(CCS(=N)(=O)CC[C@H](N)C(=O)O)C(F)(F)F)ccc1-c1ccc(Cl)cc1Cl (stereo partly specified) [US20260034094, Compound 443] | < 20
Cc1cc(Cl)ccc1-c1ccc(C(CCS(=N)(=O)CC[C@H](N)C(=O)O)C(F)(F)F)cc1 (stereo partly specified) [US20260034094, Compound 275] | < 20
